These results are taken from patent US12479827B2, “Heteroaromatic carboxamide derivatives as plasma kallikrein inhibitors” (Boehringer Ingelheim International GmbH, priority 2020, dated 2025).

The target of one assay is T1, Human PKK (Homo sapiens, UniProt P03952).
T1 construct: purchased Enzyme Research Laboratories
The experiment in a line: Inhibition of PKK using an endpoint assay (human PKK). It is filed as biochemical. Conditions: fluorogenic substrate H-Pro-Phe-Arg-AMC, 1 h room temperature, method names human or rat PKK, table does not say which. The procedure, abridged:
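Endpoint fluorescence (ex 355 nm, em 460 nm) after stopping with 1 μM final PPACK II. Buffer: Tris 100 mM pH 7.8, NaCl 150 mM, BSA 0.1%, Tween20 0.05%, with 1% DMSO present; enzyme is human plasma kallikrein.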

Assay [1] addresses T2, PKK in kaolin activated human platelet poor plasma (Homo sapiens, UniProt P03952).
T2 construct: Platelet poor plasma (PPP) obtained from human wholeblood; from tissue
The experiment in a line: Inhibition of PKK in kaolin activated human PPP.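 Note: readout is the rate of fluorogenic substrate cleavage in rfu per min.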 Conditions: 25-750 μg/mL kaolin, global fit, text b200 calls the values IC90. It is filed as biochemical. As to the method:
Platelet poor plasma (PPP) obtained from human wholeblood, anticoagulated with Na-Citrate, is incubated with various concentrations of the test compound together with either 25, 75, 250, or 750 μg/mL kaolin in assay buffer for 20 min at 37° C. such that for each kaolin dose used a concentration response is obtained for the test compound.

As usually defined, the IC50 is the concentration that gives 50% inhibition.

T2 sequence (P03952 391-638 limits assumed): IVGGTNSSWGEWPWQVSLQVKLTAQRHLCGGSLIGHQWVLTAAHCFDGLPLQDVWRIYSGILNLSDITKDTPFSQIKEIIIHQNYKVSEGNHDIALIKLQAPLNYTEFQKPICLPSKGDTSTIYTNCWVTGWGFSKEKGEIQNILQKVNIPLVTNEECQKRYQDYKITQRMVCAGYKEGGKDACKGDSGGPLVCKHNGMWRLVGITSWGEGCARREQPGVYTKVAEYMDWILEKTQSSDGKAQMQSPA
T2 sequence (P03952 20-390 limits assumed): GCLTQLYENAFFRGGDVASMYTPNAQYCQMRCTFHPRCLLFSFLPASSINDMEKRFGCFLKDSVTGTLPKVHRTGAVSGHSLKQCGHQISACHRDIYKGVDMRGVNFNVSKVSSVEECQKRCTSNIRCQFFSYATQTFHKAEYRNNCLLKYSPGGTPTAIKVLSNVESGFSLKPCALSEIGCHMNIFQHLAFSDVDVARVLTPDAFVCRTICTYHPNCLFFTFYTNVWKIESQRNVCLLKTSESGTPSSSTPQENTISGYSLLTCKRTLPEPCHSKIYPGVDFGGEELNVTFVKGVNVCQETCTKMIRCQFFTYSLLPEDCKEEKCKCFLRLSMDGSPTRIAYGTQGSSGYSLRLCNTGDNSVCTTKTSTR
T1 sequence (P03952 20-390 limits assumed): as above
T1 sequence (P03952 391-638 limits assumed): as the sequence (P03952 391-638 limits assumed) above

Take `COCc1nc(N2CC3C(C2)C3(F)F)ccc1Cn1cnc(C(=O)N[C@@H]2CCc3c2ncn3C)c1` (stereo partly drawn) [Example 95, 1-[(6-{6,6-Difluoro-3-azabicyclo[3.1.0]hexan-3-yl}-2-(methoxymethyl)pyridin-3-yl)methyl]-N-[(4R)-1-methyl-1H,4H,5H,6H-cyclopenta-[d]imidazol-4-yl]-1H-imidazole-4-carboxamide]: the IC50 came to 5.5 nM at Human PKK and 577 nM in assay [1].

Turning to `Cn1cnc2c1CC[C@H]2NC(=O)c1cn(Cc2ccc(N3CC4C(C3)C4(F)F)nc2CO)cn1` (stereo partly shown) [Example 96], the values for the IC50 (at Human PKK; in assay [1]) were 1.5 nM and 134 nM, respectively.

For `COc1nc(N2CC3C(C2)C3(F)F)ccc1Cn1cnc(C(=O)N[C@@H]2CCc3c2ncn3C)c1` (stereo partly drawn) [Example 97, 1-[(6-{6,6-Difluoro-3-azabicyclo[3.1.0]hexan-3-yl}-2-methoxypyridin-3-yl)methyl]-N-[(4R)-1-methyl-1H,4H,5H,6H-cyclopenta[d]imidazol-4-yl]-1H-imidazole-4-carboxamide], the IC50 at Human PKK came to 1.4 nM; in assay [1], 766 nM.

Take `Cn1cnc2c1CC[C@H]2NC(=O)c1cn(Cc2ccc(N3CC4CC4C3)nc2CO)cn1` (stereo partly drawn) [Example 98, 1-[(6-{3-Azabicyclo[3.1.0]hexan-3-yl}-2-(hydroxymethyl)pyridin-3-yl)methyl]-N-[(4R)-1-methyl-1H,4H,5H,6H-cyclopenta[d]imidazol-4-yl]-1H-imidazole-4-carboxamide]: the half-maximal inhibitory concentration (IC50) on Human PKK was found to be 1.5 nM; in assay [1] it was 282 nM.

Take `Cn1cnc2c1CC[C@H]2NC(=O)c1cnn(Cc2cnc(N3CC4CC4C3)cc2Cl)c1` (stereo partly drawn) [Example 99, 1-[(6-{3-Azabicyclo[3.1.0]hexan-3-yl}-4-chloropyridin-3-yl)methyl]-N-[(4R)-1-methyl-1H,4H,5H,6H-cyclopenta[d]imidazol-4-yl]-1H-pyrazole-4-carboxamide]: the IC50 is 3.7 nM on Human PKK and 2170 nM in assay [1].

As for `CCc1nc(N2CC3CC3C2)ccc1Cn1cc(C(=O)N[C@@H]2CCc3c2ncn3C)nn1` (stereo partly drawn) [Example 101, 1-[(6-{3-Azabicyclo[3.1.0]hexan-3-yl}-2-ethylpyridin-3-yl)methyl]-N-[(4R)-1-methyl-1H,4H,5H,6H-cyclopenta[d]imidazol-4-yl]-1H-1,2,3-triazole-4-carboxamide], the IC50 at Human PKK came to 0.6 nM; in assay [1], 297 nM.

For the compound `CCOc1nc(N2CC3C(C2)C3(F)F)ccc1Cn1cnc(C(=O)N[C@@H]2CCc3c2ncn3C)c1` (stereo partly drawn) [Example 102, 1-[(6-{6,6-Difluoro-3-azabicyclo[3.1.0]hexan-3-yl}-2-ethoxypyridin-3-yl)methyl]-N-[(4R)-1-methyl-1H,4H,5H,6H-cyclopenta[d]imidazol-4-yl]-1H-imidazole-4-carboxamide], the half-maximal inhibitory concentration (IC50) against Human PKK is 2.1 nM; in assay [1], 1440 nM.

In the case of `Cc1c(Cn2cc(C(=O)N[C@@H]3CCc4c3ncn4C)cn2)cnc(N2CC3C(C2)C3(F)F)c1C#N` (stereo partly drawn) [Example 103, 1-[(5-Cyano-6-{6,6-difluoro-3-azabicyclo[3.1.0]-hexan-3-yl}-4-methylpyridin-3-yl)methyl]-N-[(4R)-1-methyl-1H,4H,5H,6H-cyclopenta-[d]imidazol-4-yl]-1H-pyrazole-4-carboxamide], the IC50 at Human PKK was 0.7 nM; in assay [1] it was 531 nM.

In the case of `Cn1cnc2c1CC[C@H]2NC(=O)c1cnn(Cc2ccc(N3CC4CC4C3)nc2F)c1` (stereo partly drawn) [Example 104, 1-[(6-{3-Azabicyclo[3.1.0]hexan-3-yl}-2-fluoropyridin-3-yl)methyl]-N-[(4R)-1-methyl-1H,4H,5H,6H-cyclopenta[d]imidazol-4-yl]-1H-pyrazole-4-carboxamide], the half-maximal inhibitory concentration (IC50) against Human PKK was 3.2 nM; in assay [1], 706 nM.

In the case of `Cc1c(Cn2cnc(C(=O)N[C@@H]3CCc4c3ncn4C)c2)cnc(N2CC3C(C2)C3(F)F)c1C#N` (stereo partly drawn) [Example 105, 1-[(5-Cyano-6-{6,6-difluoro-3-azabicyclo[3.1.0]-hexan-3-yl}-4-methylpyridin-3-yl)methyl]-N-[(4R)-1-methyl-1H,4H,5H,6H-cyclopenta-[d]imidazol-4-yl]-1H-imidazole-4-carboxamide], the values for the IC50 (on Human PKK; in assay [1]) were 0.5 nM and 117 nM, respectively.

With `Cc1cc(N2CC3CC3C2)ncc1Cn1cnc(C(=O)N[C@@H]2CCc3c2ncn3C)c1` (stereo partly drawn) [Example 106, 1-[(6-{3-Azabicyclo[3.1.0]hexan-3-yl}-4-methylpyridin-3-yl)methyl]-N-[(4R)-1-methyl-1H,4H,5H,6H-cyclopenta[d]imidazol-4-yl]-1H-imidazole-4-carboxamide], the values for the half-maximal inhibitory concentration (IC50) (on Human PKK; in assay [1]) were 9.8 nM and 1970 nM, respectively.

In the case of `CCc1nc(N2CC3C(C2)C3(F)F)ccc1Cn1cc(C(=O)N[C@@H]2CCc3c2ncn3C)nn1` (stereo partly drawn) [Example 109, 1-[(6-{6,6-Difluoro-3-azabicyclo[3.1.0]hexan-3-yl}-2-ethylpyridin-3-yl)methyl]-N-[(4R)-1-methyl-1H,4H,5H,6H-cyclopenta[d]imidazol-4-yl]-1H-1,2,3-triazole-4-carboxamide], the IC50 turned out to be 0.8 nM against Human PKK and 414 nM in assay [1].

With `Cc1cc(N2CC3C(C2)C3(F)F)nc(C)c1Cn1cnc(C(=O)N[C@@H]2CCc3c2ncn3C)c1` (stereo partly drawn) [Example 111, 1-[(6-{6,6-Difluoro-3-azabicyclo[3.1.0]hexan-3-yl}-2,4-dimethylpyridin-3-yl)methyl]-N-[(4R)-1-methyl-1H,4H,5H,6H-cyclopenta[d]imidazol-4-yl]-1H-imidazole-4-carboxamide], the values for the IC50 (on Human PKK; in assay [1]) were 8.6 nM and 4150 nM, respectively.

For `Cc1cc(N2CC3C(C2)C3(F)F)nc(C)c1Cn1cc(C(=O)N[C@@H]2CCc3c2ncn3C)cn1` (stereo partly drawn) [Example 112, 1-[(6-{6,6-Difluoro-3-azabicyclo[3.1.0]hexan-3-yl}-2,4-dimethylpyridin-3-yl)methyl]-N-[(4R)-1-methyl-1H,4H,5H,6H-cyclopenta[d]imidazol-4-yl]-1H-pyrazole-4-carboxamide], the IC50 against Human PKK is 12.6 nM; in assay [1], 2780 nM.

As to `Cn1cnc2c1CC[C@H]2NC(=O)c1cnn(Cc2ccc(N3CC4CC4C3)nc2C#N)c1` (stereo partly drawn) [Example 132, 1-[(6-{3-Azabicyclo[3.1.0]hexan-3-yl}-2-cyanopyridin-3-yl)methyl]-N-[(4R)-1-methyl-1H,4H,5H,6H-cyclopenta[d]imidazol-4-yl]-1H-pyrazole-4-carboxamide], the IC50 at Human PKK was 1.9 nM; in assay [1], 425 nM.

As to `Cn1cnc2c1CC[C@H]2NC(=O)c1c[nH]c(Cc2ccc(N3CC4C(C3)C4(F)F)nc2)c1` (stereo partly drawn) [Example 139, 5-[(6-{6,6-Difluoro-3-azabicyclo[3.1.0]hexan-3-yl}pyridin-3-yl)methyl]-N-[(4R)-1-methyl-1H,4H,5H,6H-cyclopenta[d]imidazol-4-yl]-1H-pyrrole-3-carboxamide], the IC50 against Human PKK stood at 9.6 nM; in assay [1] it was 774 nM.

Regarding `Cn1cnc2c1CC[C@H]2NC(=O)c1ccn(Cc2ccc(N3CC4C(C3)C4(F)F)nc2)c1` (stereo partly drawn) [Example 140, 1-[(6-{6,6-Difluoro-3-azabicyclo[3.1.0]hexan-3-yl}pyridin-3-yl)methyl]-N-[(4R)-1-methyl-1H,4H,5H,6H-cyclopenta[d]imidazol-4-yl]-1H-pyrrole-3-carboxamide], the concentration for half-maximal inhibition (IC50) on Human PKK was determined as 5.8 nM; in assay [1], 760 nM.
